{"source": "patent US20090258071A1", "about": "“COMPOSITIONS AND METHODS FOR PH TARGETED DRUG DELIVERY” (Labopharm, Inc., priority 2006, published 2009)", "assay": "Dissolution of SN-38 in phosphate buffer pH 6.8", "type": "physicochemical", "settings": "FIG. 4", "experimental": "The kinetics of drug release can be determined by measuring the amount of drug released into phosphate buffer pH 6.8 at 37° C. via conventional high pressure liquid chromatography (HPLC).\nThe experiment was repeated in a solution at a higher pH, specifically pH 6.8. Briefly, the dissolution of SN-38 was measured either as SN-38 alone or from SN-38 containing micelles prepared as described in Example 2. The freeze dried cake produced in Example 2 was added to phosphate buffer pH 6.8 and the drug concentration was measured under the same conditions as the experiment using aqueous HCl at pH 1.2.", "data": [{"smiles": "CCc1c2c(nc3ccc(O)cc13)-c1cc3c(c(=O)n1C2)COC(=O)[C@]3(O)CC", "note": "[SN-38, 7-ethyl-10-hydroxy-camptothecin]", "values": [{"measurement": "dissolution behaviour", "result": "rapidly precipitates from solution"}]}]}
